In assay [1] the target is Helix Pomatia lectin (HPA) (Helix pomatia, UniProt Q2F1K8). The assay can be described thus: Direct binding ELISA, competitive inhibition, Helix Pomatia lectin control. Conditions: read-out: Concentration required for 50% inhibition (IC50), HPA; control plant lectin. The source says: Glycopeptides were purified by C-18 reverse phase HPLC. Peptides were custom synthesized by Neosystems (Strasbourg). Biotinylated Helix Pomatia lectin (HPA) was from KemEnTec (Denmark). Anti-MUC1 HMFG2 monoclonal antibody was a generous gift from Joyce Taylor-Papadimitriou. Anti-MUC1 SE5 monoclonal antibody was developed by immunizing Balb/c mice with 60-mer MUC1 tandem repeat peptide glycosylated with 5 moles GalNAc per repeat. Monoclonal antibodies to the lectin domains of human GalNAc-T2 and -T4 were developed as previously described^8, 63.
(§1) Direct binding ELISA assay was developed as follows: Polystyrene microtiter plates (Maxisorb, Nunc, Denmark) were coated with peptides or enzymatically glycosylated glycopeptides in PBS overnight at 4° C. Plates were washed and blocked with 0.1% Tween20 and 0.2% BSA in PBS for 1 h at room temperature, followed by incubation with biotinylated proteins in PBS with 0.05% Tween20 for 2 h at room temperature. After four washes with PBS, plates were incubated with 1:2,000 dilution streptavidin-HRP (Sigma) in PBS for 30 min at room temperature and washed four times with PBS. Development was performed with 0.5 mg/ml o-phenylenediamine and 0.02% H2O2 at room temperature for 15 min, and reaction stopped by adding 100 μl/well of 0.5 N H2SO4. Competitive inhibition assays were done at end-point titers of GalNAc-transferase proteins with one hour preincubations with inhibitor.
Inhibition experiments were used to further define the binding specificity of GalNAc-T2 and -T4 secreted soluble enzymes as well as lectin domains compared to Helix Pomatia lectin (Table VII).
In general terms: ELISA stands for enzyme-linked immunosorbent assay.

The subject of assay [2] is CHOldlD/MUC1F-clone2 cells. Briefly: Cell surface expression of MUC1 by immunocytology. It counts as cell-based, Chinese Hamster. The conditions noted are these: 1 mM; cells grown in GalNAc; FIG. 13. As for the experimental part:
We therefore investigated the effect of treatment with GalNAcα-benzyl of CHOldlD/MUC1F-clone2 cells grown in the presence of GalNAc. CHOldlD/MUC1F-clone2 cells were seeded in 6 well plates at a density of 0.2×10^6 per well and were grown for 6 hours in Hams F12 medium with serum until approximately 30% subconfluent. […] After 18 hours, the medium was replaced with fresh Optimem containing the sugars and benzyl derivatives as above and grown for 12-48 hours. Initially we analyzed surface expression of MUC1 by immunocytology. Cells were washed once in PBS-CMF (phosphate buffered saline Calcium and Magnesium free) after carefully removing the medium from the wells and subsequently fixed in 2 ml 3% paraformaldehyde at 25° C. for 20 min followed by three washes with PBS-CMF 3 times. Free aldehyde groups were quenched by incubating in 2 mL 50 mM Ammonium Chloride in PBS-CMF for 10 min, followed by three washes with PBS-CMF and three washes with 5 min incubations each with PBS-CMF containing 0.2% Fish Skin Gelatin (Sigma). Immunostaining of cells was performed by incubation with monoclonal antibodies for 40 min at 25° C., followed by three washes with PBS-CMF and three washes of 5 min each with PBS-CMF containing 0.2% Fish Skin Gelatin. […]

Assay [3] concerns CHOldlD/MUC1F-clone2 cells. Briefly: MUC1 expression in cell lysates, immunoprecipitation and SDS-PAGE western blot. It counts as cell-based, Chinese Hamster. Conditions: 2 mM. The procedure:
We next analysed the expression of MUC1 produced by CHOldlD/MUC1F-clone2 cells by SDS-PAGE western analysis. […] Cells were further treated with 2 mM GalNAcα-benzyl, GlcNAcα-benzyl or no inhibitor. Cells were washed and lysed at 24 or 48 hours and the lysates subjected to immunoprecipitation with monoclonal antibody HMFG2, which broadly recognize MUC1 glycoforms. Immunoprecipitates were analysed by SDS-PAGE and western blot using HMFG2 antibody to detect MUC1 expression. […] In striking contrast, treatment with GalNAcα-benzyl had significant effect after 48 hours. […] This indicates some heterogeneity in glycosylation.
As shown in Examples 8 and 9, polypeptide GalNAc-transferases contain lectin domains with binding properties for GalNAc-peptides including GalNAc-MUC1 peptides. […] GalNAcβ-benzyl, the β-anomeric configuration of GalNAc-benzyl (there is a β linkage between the N-acetylgalactosamine and the benzyl ring), was custom synthesized by Alberta Research Council (Canada), and its structure was confirmed by mass spectrometry and ^1H-NMR. […] Cells were then treated with 2 mM GalNAcα-benzyl, GalNAcβ-benzyl, or GlcNAcα-benzyl as control (GlcNAcα-benzyl was shown in Example 10 to have no effect). Cells were washed and lysed as described above after 36 hours and the lysates subjected to immunoprecipitation with anti-MUC1 monoclonal antibodies HMFG2 or 5E5. […] FIG. 17 illustrates the same experiments as in FIG. 16 except that the detection antibody is 5E5 and only Tn and STn MUC1 glycoforms are visualised.
Background: Immunoblotting shows a protein as a band on a membrane.

Assay [4] relates to CHOldlD/MUC1F-clone2 cells. Described as above. Format: cell-based, Chinese Hamster. The conditions noted are these: 2 mM, 48 hours.
For assay [5], the target named is T1, GalNAc-T4 lectin domain (T4ld) (Homo sapiens, UniProt Q8N4A0).
T1 construct: made in house; host or cells: High Five insect cells (baculovirus, pAcGP67-A)
Briefly: Direct binding ELISA to GalNAc-MUC1 glycopeptide, competitive inhibition, T4ld. As for the experimental part:
(§2) Protein biotinylation was made as previously reported^62. The pH of 1 ml purified protein (0.3 mg/ml) in PBS was adjusted to pH 9 with 1 M NaOH and 40 μl N-hydroxy-succinimidobiotin (Sigma) dissolved in DMF (10 mg/ml) was added. The solution was mixed end-over-end for 2 hours at room temperature, and dialyzed three times against PBS and an equal volume of glycerol was added. The biotinylated proteins were stored at −20° C. in 50% glycerol until use.
as §1
(§3) In binding studies using lectins without biotinylation antibodies to the HIS-tag and the T7-tag, or in some experiments antibodies raised to GalNAc-T2 and -T4 enzymes were used to detect binding.

The target in assay [6] is T2, GalNAc-T2 lectin domain (T2ld) (Homo sapiens, UniProt Q10471).
T2 construct: made in house; host or cells: High Five insect cells (baculovirus, pAcGP67-A)
T2 sequence (Q10471 408-571): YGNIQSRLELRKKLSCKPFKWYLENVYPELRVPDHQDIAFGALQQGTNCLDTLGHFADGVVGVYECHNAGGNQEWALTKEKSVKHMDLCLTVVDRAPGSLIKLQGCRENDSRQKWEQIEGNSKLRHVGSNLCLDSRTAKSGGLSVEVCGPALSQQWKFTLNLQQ
Briefly: Direct binding ELISA to GalNAc-MUC1 glycopeptide, competitive inhibition, T2ld. The procedure:
as §2, §1, §3

[7] abbreviates: 48 hours, IP HMFG2, blot HMFG2, grown in GalNAc or Gal and GalNAc.

SMILES strings stand for the structures. Entries after “also recorded” stand apart in the source; their conditions may differ. Bounds are passed on as bounds.

Take `CC(=O)N[C@H]1[C@@H](OCc2ccccc2)O[C@H](CO)[C@H](O)[C@@H]1O` [GalNAcα-benzyl]: the IC50 in assay [1] is 500 µM. In addition, in assay [2], the “Cell surface expression of MUC1” value is “strong inhibition”. Moreover, the MUC1 expression entry in assay [3] (24 hours, IP HMFG2, blot HMFG2) is recorded as “no significant effect”; in assay [3] (36 hours, blot 5E5, cells grown in GalNAc), “strong inhibition”; in assay [3] (setting [7]), “significant reduction in MUC1 expression”; in assay [4] (IP HMFG2, blot 5E5), “significant reduction in MUC1 expression”. Besides, the “SDS-PAGE migration of MUC1 (O-glycosylation)” value in assay [3] (48 hours, cells grown in Gal and GalNAc, blot HMFG2) is recorded as “significant shift in migration”; in assay [4] (cells grown in Gal and GalNAc, blot 5E5), “marked shift in migration”.
Turning to `CC(=O)N[C@H]1[C@@H](OCc2ccccc2)O[C@H](CO)[C@@H](O)[C@@H]1O` [GlcNAcα-benzyl], the IC50 in assay [1] is 2000 µM; in assay [5], > 100000 µM; in assay [6], > 100000 µM. Further, the “Cell surface expression of MUC1” value in assay [2] is reported as “no inhibition”. Besides, in assay [3] (setting [7]), the MUC1 expression result was “produced the same glycoforms at similar intensity as cells without treatment; also recorded: no effect”.

These data come from patent publication US7338932B2, “Methods of modulating functions of polypeptide GalNAc-transferases and of screening test substances to find agents herefor, pharmaceutical compositions comprising such agents and the use of such agents for preparing medicaments” (Glycozym APS, priority 2000, dated 2008).
